Data: patent US11957687B2 (REGENERON PHARMACEUTICALS, INC., priority 2019, dated 2024)
Read-outs that look alike come from different tables or passages of the source.

Legend:
[1] = target: HSD17B13 (Homo sapiens (Human), UniProt Q7Z5P4); experiment: HSD17B13 enzymatic inhibition assay (150 nM or 50 nM HSD17B13); format: biochemical
[2] = Microsome stability assay, human liver microsomes; format: in vitro ADME; settings: 1 μM compound, 0.5 mg/mL microsomal protein; for microsomal CLint at 1 h, 1 µM / half-life at 1 h, 1 µM: human, human liver microsomes, pooled, NADPH, 37° C.; for microsomal CLint at 1 h, 1 µM: read-out: Microsome Stability Human liver microsomes Cl; for half-life at 1 h, 1 µM: read-out: Microsome Stability Human liver microsomes T½
In short: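 Compound at 1 μM incubated at 37° C with pooled human or mouse liver microsomes (0.5 mg/mL protein) plus NADPH regenerating system, sampled at 0–60 min; a 60-min no-NADPH incubation also included. Single replicate; LC/MS/MS disappearance from analyte/internal standard peak area ratios, without standard curve.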

[3] = target: HSD17B1 (Homo sapiens (Human), UniProt P14061); experiment: HSD17B1 enzymatic blocking assay; format: biochemical; settings: 25 μM Estradiol, 500 μM NAD; read-out: Inhibition of HSD17B1 IC50
HSD17B1, sequence (P14061 other isoform, or with tags, fused parts or gaps): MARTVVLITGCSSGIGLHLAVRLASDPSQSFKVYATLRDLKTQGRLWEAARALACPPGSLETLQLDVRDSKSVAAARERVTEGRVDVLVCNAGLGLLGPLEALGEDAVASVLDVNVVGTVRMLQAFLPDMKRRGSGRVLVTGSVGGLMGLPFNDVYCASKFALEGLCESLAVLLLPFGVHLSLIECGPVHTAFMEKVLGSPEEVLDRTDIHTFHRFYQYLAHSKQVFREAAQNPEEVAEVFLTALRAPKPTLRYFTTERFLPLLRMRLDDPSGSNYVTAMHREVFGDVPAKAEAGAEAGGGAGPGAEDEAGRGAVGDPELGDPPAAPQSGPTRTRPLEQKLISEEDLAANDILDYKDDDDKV
Method: To screen compounds of the disclosure for their ability to block HSD17B1 function, an enzymatic blocking assay was performed. For the assay, HSD17B1 activity was measured by detecting NADH formation from oxidation of Estradiol using a NADH Glo luminescence assay (Promega, #Cat. No. G9062). […] Compounds were incubated with the enzyme for 30 minutes at room temperature. […] DMSO at a concentration of 0.5% was used as a negative control and a ‘no substrate’ control was used a positive control in the assay. Detection reagent was then added as per manufacturer's instructions, and the plate was subsequently incubated in the dark for 1 hour at room temperature, NADH generated was detected in the luminescence mode on the Envision Perkin Elmer plate reader. The IC50 values were determined using Dotmatics analysis software.

[4] = target: HSD17B2 (Homo sapiens (Human), UniProt P37059); experiment: HSD17B2 enzymatic blocking assay; format: biochemical; settings: 1.8 μM Estradiol, 650 μM NAD; read-out: Inhibition of HSD17B2 IC50
HSD17B2, sequence (P37059 other isoform, or with tags, fused parts or gaps): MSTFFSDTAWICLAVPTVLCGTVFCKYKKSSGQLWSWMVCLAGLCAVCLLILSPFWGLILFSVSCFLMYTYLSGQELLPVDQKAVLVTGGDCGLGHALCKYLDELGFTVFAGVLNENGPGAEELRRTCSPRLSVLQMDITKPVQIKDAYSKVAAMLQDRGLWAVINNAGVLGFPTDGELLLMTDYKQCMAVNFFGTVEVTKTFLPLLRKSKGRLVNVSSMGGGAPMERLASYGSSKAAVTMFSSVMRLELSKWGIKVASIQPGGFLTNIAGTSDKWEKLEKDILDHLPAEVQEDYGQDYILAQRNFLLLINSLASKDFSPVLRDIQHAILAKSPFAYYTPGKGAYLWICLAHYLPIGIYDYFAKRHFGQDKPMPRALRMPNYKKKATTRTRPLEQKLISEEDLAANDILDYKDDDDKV
In short: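 Mammalian-expressed enzyme at 2 ng/μL in 50 mM Tris-HCl pH 7.5 with detergents/BSA, preincubated 15 min at 20° C. with compound (10-point titration). Reaction with 1.8 μM estradiol and 650 μM NAD ran 45 min at 20° C.; NADH measured by NADH-Glo luminescence and IC50 derived.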

[5] = 50 nM HSD17B13, read-out: Inhibition of 50 nM of HSD17B13 IC50

HSD17B13, sequence (Q7Z5P4 other isoform, or with tags, fused parts or gaps): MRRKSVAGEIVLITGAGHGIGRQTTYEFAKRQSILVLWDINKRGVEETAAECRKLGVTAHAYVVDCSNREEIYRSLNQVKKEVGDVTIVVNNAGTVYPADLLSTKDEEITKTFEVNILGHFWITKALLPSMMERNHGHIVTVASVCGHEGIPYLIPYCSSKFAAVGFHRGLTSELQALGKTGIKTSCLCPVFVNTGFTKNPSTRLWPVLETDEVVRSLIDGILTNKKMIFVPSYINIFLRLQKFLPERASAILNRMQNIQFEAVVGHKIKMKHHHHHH

Compound	IC50 [1, 5] [µM]	Microsome Stability Human liver microsomes % Remaining @60 min [2] [%]	microsomal CLint at 1 h, 1 µM [2] [µL/min/mg]	half-life at 1 h, 1 µM [2] [min]	IC50 [3] [µM]	IC50 [4] [µM]	IC50 ([1]; 150 nM HSD17B13, read-out: Inhibition of 150 nM of HSD17B13 IC50) [µM]
O=C(NC(c1ccccc1)c1ccc(-c2ccccc2)cc1)c1ccc(C(F)(F)F)[nH]c1=O (stereo not shown) [Compound 2, N-([1,1′-biphenyl]-4-yl(phenyl)methyl)-2-oxo-6-(trifluoromethyl)-1,2-dihydropyridine-3-carboxamide]	0.74	3.40	110	12.6	> 30	8.02	–
Cc1ccccc1C(NC(=O)c1ccc(C(F)(F)F)[nH]c1=O)c1ccccc1 (stereo not shown) [Compound 5, N-(phenyl(o-tolyl)methyl)-2-oxo-6-(trifluoromethyl)-1,2-dihydropyridine-3-carboxamide]	0.85	16.00	52	26.6	> 30	15.3	–
O=C(NC(c1ccccc1)c1ccc(Cl)cc1)c1ccc(C(F)(F)F)[nH]c1=O (stereo not shown) [Compound 21, N-((4-chlorophenyl)(phenyl)methyl)-2-oxo-6-(trifluoromethyl)-1,2-dihydropyridine-3-carboxamide]	0.75	73.00	10.8	128	> 30	12	–
O=C(NC1c2ccccc2-c2ccccc21)c1ccc(C(F)(F)F)[nH]c1=O [Compound 25, N-(9H-fluoren-9-yl)-2-oxo-6-(trifluoromethyl)-1,2-dihydropyridine-3-carboxamide]	0.53	1.00	265	5.22	> 30	18.2	–
Cc1ccc(C(NC(=O)c2ccc(C(F)(F)F)[nH]c2=O)c2ccccc2)cc1 (stereo not shown) [Compound 27, N-(phenyl(p-tolyl)methyl)-2-oxo-6-(trifluoromethyl)-1,2-dihydropyridine-3-carboxamide]	1.06	0.40	511	2.71	> 30	16.8	0.47
Cc1ccc2c(c1)Oc1cc(C)ccc1C2NC(=O)c1cc(N2CCOCC2)c(C(F)(F)F)[nH]c1=O [Compound 438, N-(3,6-dimethyl-9H-xanthen-9-yl)-5-morpholino-2-oxo-6-(trifluoromethyl)-1,2-dihydropyridine-3-carboxamide]	0.05	–	–	–	10.7	23.5	–
CSc1cccc(C(NC(=O)c2ccc(C(F)(F)F)[nH]c2=O)c2ccc(C)cc2)c1 (stereo not shown) [Compound 445, N-((3-(methylthio)phenyl)(p-tolyl)methyl)-2-oxo-6-(trifluoromethyl)-1,2-dihydropyridine-3-carboxamide]	0.23	–	–	–	14.8	42.9	–
Cc1ccc2c(c1)Oc1cc(C)ccc1C2NC(=O)c1cc(C2CCCCC2)c(C(F)(F)F)[nH]c1=O [Compound 460, 5-cyclohexyl-N-(3,6-dimethyl-9H-xanthen-9-yl)-2-oxo-6-(trifluoromethyl)-1,2-dihydropyridine-3-carboxamide]	0.03	–	–	–	12.9	25	–
Cc1ccc2c(c1)Oc1cc(C)ccc1C2NC(=O)c1cc(C2CCOCC2)c(C(F)(F)F)[nH]c1=O [Compound 461, N-(3,6-dimethyl-9H-xanthen-9-yl)-2-oxo-5-(tetrahydro-2H-pyran-4-yl)-6-(trifluoromethyl)-1,2-dihydropyridine-3-carboxamide]	0.04	–	–	–	7.64	45.4	–
Cc1ccc2c(c1)Sc1cc(C)ccc1C2NC(=O)c1cc(-c2ccncc2)c(C(F)(F)F)[nH]c1=O [Compound 495, N-(3,6-dimethyl-9H-thioxanthen-9-yl)-6-oxo-2-(trifluoromethyl)-1,6-dihydro-[3,4′-bipyridine]-5-carboxamide]	0.03	–	–	–	2.04	19.7	–
Cc1ccc2c(c1)Oc1cc(C)ccc1C2NC(=O)c1cc(-c2cncnc2)c(C(F)(F)F)[nH]c1=O [Compound 499, N-(3,6-dimethyl-9H-xanthen-9-yl)-2-oxo-5-(pyrimidin-5-yl)-6-(trifluoromethyl)-1,2-dihydropyridine-3-carboxamide]	0.03	–	–	–	4.86	9.8	–
Cc1ccc2c(c1)Oc1cc(C)ccc1C2NC(=O)c1cc(Cc2ccccc2)c(C(F)(F)F)[nH]c1=O [Compound 500, 5-benzyl-N-(3,6-dimethyl-9H-xanthen-9-yl)-2-oxo-6-(trifluoromethyl)-1,2-dihydropyridine-3-carboxamide]	0.02	–	–	–	2.67	14.8	–
Cc1ccc2c(c1)Oc1cc(C)ccc1C2NC(=O)c1cc(C2=CCN(C)CC2)c(C(F)(F)F)[nH]c1=O [Compound 501, N-(3,6-dimethyl-9H-xanthen-9-yl)-1′-methyl-6-oxo-2-(trifluoromethyl)-1,1′,2′,3′,6,6′-hexahydro-[3,4′-bipyridine]-5-carboxamide]	0.34	–	–	–	> 30	46	–
Cc1ccc2c(c1)Oc1cc(C)ccc1C2NC(=O)c1cc(-c2ccncc2)c(C(F)(F)F)[nH]c1=O [Compound 504, N-(3,6-dimethyl-9H-xanthen-9-yl)-6-oxo-2-(trifluoromethyl)-1,6-dihydro-[3,4′-bipyridine]-5-carboxamide]	0.06	–	–	–	19.7	39.4	–
Cc1ccc2c(c1)Oc1cc(C)ccc1C2NC(=O)c1cc(-c2cnccn2)c(C(F)(F)F)[nH]c1=O [Compound 508, N-(3,6-dimethyl-9H-xanthen-9-yl)-2-oxo-5-(pyrazin-2-yl)-6-(trifluoromethyl)-1,2-dihydropyridine-3-carboxamide]	0.02	–	–	–	3.3	45.8	–
Cc1ccc2c(c1)Oc1cc(C)ccc1C2NC(=O)c1cc(-c2ncccn2)c(C(F)(F)F)[nH]c1=O [Compound 509, N-(3,6-dimethyl-9H-xanthen-9-yl)-2-oxo-5-(pyrimidin-2-yl)-6-(trifluoromethyl)-1,2-dihydropyridine-3-carboxamide]	0.01	–	–	–	3.48	11.9	–
Cc1ccc2c(c1)Oc1cc(C)ccc1C2NC(=O)c1cc(-c2ccccn2)c(C(F)(F)F)[nH]c1=O [Compound 510, N-(3,6-dimethyl-9H-xanthen-9-yl)-6′-oxo-2′-(trifluoromethyl)-1′,6′ dihydro-[2,3′-bipyridine]-5′-carboxamide]	0.02	–	–	–	2.19	5.53	–
C=CCc1cc(C(=O)NC2c3ccc(C)cc3Oc3cc(C)ccc32)c(=O)[nH]c1C(F)(F)F [Compound 511, 5-allyl-N-(3,6-dimethyl-9H-xanthen-9-yl)-2-oxo-6-(trifluoromethyl)-1,2-dihydropyridine-3-carboxamide]	0.05	–	–	–	6.13	16.2	–
CN1c2ccccc2C(NC(=O)c2ccc(C(F)(F)F)[nH]c2=O)c2ccccc21 [Compound 519, N-(10-methyl-9,10-dihydroacridin-9-yl)-2-oxo-6-(trifluoromethyl)-1,2-dihydropyridine-3-carboxamide]	1.35	–	–	–	7.22	> 100	–
Cc1ccc2c(c1)Oc1cc(C)ccc1C2NC(=O)c1cc(CCc2ccccc2)c(C(F)(F)F)[nH]c1=O [Compound 520, N-(3,6-dimethyl-9H-xanthen-9-yl)-2-oxo-5-phenethyl-6-(trifluoromethyl)-1,2-dihydropyridine-3-carboxamide]	0.02	–	–	–	13.7	25.3	–
CCCc1cc(C(=O)NC2c3ccc(C)cc3Oc3cc(C)ccc32)c(=O)[nH]c1C(F)(F)F [Compound 521, N-(3,6-dimethyl-9H-xanthen-9-yl)-2-oxo-5-propyl-6-(trifluoromethyl)-1,2-dihydropyridine-3-carboxamide]	0.02	–	–	–	7.42	29.2	–
N#Cc1ccc2c(c1)Oc1ccccc1C2NC(=O)c1ccc(C(F)(F)F)[nH]c1=O (stereo not shown) [Compound 528, N-(3-cyano-9H-xanthen-9-yl)-2-oxo-6-(trifluoromethyl)-1,2-dihydropyridine-3-carboxamide]	0.09	–	–	–	17	23.2	–
